Experimental data taken from the supplement of paper PMC10307832.

Legend:
Assay in all cases: relative viability (nuclei count vs DMSO), 5 days (fraction); higher = more cells survive
Obatoclax + Linsitinib = compound: COC1=CC(c2cc3ccccc3[nH]2)=N/C1=C\c1[nH]c(C)cc1C [Obatoclax] + C[C@]1(O)C[C@@H](c2nc(-c3ccc4ccc(-c5ccccc5)nc4c3)c3c(N)nccn32)C1 [Linsitinib] (partner 1 µM)
Outline: (§1)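 Each reported value is a median over duplicate plates. It expresses relative viability: treated-well nuclei count divided by vehicle-well nuclei count. Lung cancer cell lines in 1536-well plates were dosed by pin tool a day after seeding, alone with one drug or with a fixed anchor-drug dose plus five library-drug doses (not always all listed) in √10 steps, and nuclei were counted after 5 days.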

Obatoclax + Luminespib = compound: COC1=CC(c2cc3ccccc3[nH]2)=N/C1=C\c1[nH]c(C)cc1C [Obatoclax] + CCNC(=O)c1noc(-c2cc(C(C)C)c(O)cc2O)c1-c1ccc(CN2CCOCC2)cc1 [Luminespib] (partner 0.01 µM)
Outline: as §1

Obatoclax + AZD7762 = compound: COC1=CC(c2cc3ccccc3[nH]2)=N/C1=C\c1[nH]c(C)cc1C [Obatoclax] + NC(=O)Nc1cc(-c2cccc(F)c2)sc1C(=O)N[C@H]1CCCNC1 [AZD7762] (partner 0.2 µM)
Outline: as §1

Bortezomib + Dasatinib = compound: CC(C)C[C@H](NC(=O)[C@H](Cc1ccccc1)NC(=O)c1cnccn1)B(O)O [Bortezomib] + Cc1nc(Nc2ncc(C(=O)Nc3c(C)cccc3Cl)s2)cc(N2CCN(CCO)CC2)n1 [Dasatinib] (partner 0.075 µM)
Outline: as §1

Row | Cell Line | relative viability (Obatoclax + Linsitinib; first compound 0.01 µM) | relative viability (Obatoclax + Linsitinib; first compound 0.03162 µM) | relative viability (Obatoclax + Linsitinib; first compound 0.1 µM) | relative viability (Obatoclax + Linsitinib; first compound 0.3162 µM) | relative viability (Obatoclax + Linsitinib; first compound 1 µM) | relative viability (Obatoclax + Luminespib; first compound 0.01 µM) | relative viability (Obatoclax + Luminespib; first compound 0.03162 µM) | relative viability (Obatoclax + Luminespib; first compound 0.1 µM) | relative viability (Obatoclax + Luminespib; first compound 0.3162 µM) | relative viability (Obatoclax + Luminespib; first compound 1 µM) | relative viability (Obatoclax + AZD7762; first compound 0.01 µM) | relative viability (Obatoclax + AZD7762; first compound 0.03162 µM) | relative viability (Obatoclax + AZD7762; first compound 0.1 µM) | relative viability (Obatoclax + AZD7762; first compound 0.3162 µM) | relative viability (Obatoclax + AZD7762; first compound 1 µM) | relative viability (Bortezomib + Dasatinib; first compound 0.0002 µM) | relative viability (Bortezomib + Dasatinib; first compound 0.000632 µM) | relative viability (Bortezomib + Dasatinib; first compound 0.002 µM) | relative viability (Bortezomib + Dasatinib; first compound 0.006325 µM) | relative viability (Bortezomib + Dasatinib; first compound 0.02 µM)
1 | A549 | 0.601 | 0.55 | 0.621 | 0.635 | 0.626 |  |  |  |  |  |  |  |  |  |  |  |  |  |  | 
2 | Calu-6 | 0.95 | 0.898 | 0.946 | 0.852 | 0.652 |  |  |  |  |  |  |  |  |  |  |  |  |  |  | 
3 | SW 900 |  |  |  |  |  | 0.164 | 0.153 | 0.179 | 0.131 | 0.148 | 0.588 | 0.489 | 0.671 | 0.46 | 0.519 | 0.74 | 0.507 | 0.167 | 0.107 | 0.116
4 | NCI-H2023 | 0.624 | 0.648 | 0.635 | 0.608 | 0.279 | 0.57 | 0.799 | 0.556 | 0.257 | 0.107 |  |  |  |  |  | 0.59 | 0.556 | 0.558 | 0.124 | 0.0683
5 | SW 1573 | 0.768 | 0.832 | 0.803 | 0.801 | 0.81 | 0.26 | 0.442 | 0.206 | 0.188 | 0.164 |  |  |  |  |  | 0.488 | 0.867 | 0.24 | 0.0568 | 0.052
6 | NCI-H661 | 0.598 | 0.564 | 0.66 | 0.529 | 0.735 | 0.917 | 0.937 | 0.921 | 0.808 | 0.601 |  |  |  |  |  | 0.851 | 0.836 | 0.773 | 0.331 | 0.168
7 | UMC-11 | 1.04 | 0.875 | 0.981 | 0.81 | 0.885 | 0.993 | 0.968 | 1.05 | 1.07 | 0.428 |  |  |  |  |  | 0.389 | 0.491 | 0.439 | 0.278 | 0.171
8 | NCI-H520 | 0.925 | 0.891 | 1.12 | 0.583 | 0.262 | 0.231 | 0.215 | 0.257 | 0.246 | 0.205 |  |  |  |  |  | 0.173 | 0.207 | 0.18 | 0.201 | 0.179
9 | COR-L 105 | 0.989 | 0.964 | 0.998 | 1.06 | 0.401 | 0.97 | 0.908 | 0.724 | 1.75 | 0.236 |  |  |  |  |  | 0.381 | 0.324 | 0.352 | 0.267 | 0.216
10 | NCI-H1703 | 0.613 | 0.539 | 0.407 | 0.917 | 0.589 |  |  |  |  |  | 0.135 |  |  | 0.138 | 0.126 |  |  |  |  | 
11 | NCI-H1650 |  |  |  |  |  | 0.172 | 0.208 | 0.21 | 0.202 | 0.23 |  |  |  |  |  | 0.354 | 0.302 | 0.181 | 0.197 | 0.207
12 | NCI-H2009 | 1.12 | 1.2 | 1.19 | 1.02 | 0.262 | 0.928 | 0.981 | 0.993 | 0.713 | 0.246 |  |  |  |  |  | 0.291 | 0.254 | 0.244 | 0.0687 | 0.0717
13 | COR-L23 | 0.848 | 1 | 0.767 | 0.29 | 0.173 | 0.556 | 0.638 | 0.45 | 0.178 | 0.115 |  |  |  |  |  | 0.461 | 0.459 | 0.485 | 0.045 | 0.054
14 | NCI-H1563 | 1.14 | 1.15 | 1.18 | 1.26 | 0.943 | 0.519 | 0.528 | 0.529 | 0.503 | 0.517 |  |  |  |  |  | 0.448 | 0.428 | 0.411 | 0.465 | 0.455
15 | NCI-H1623 |  |  |  |  |  | 0.561 | 0.437 | 0.662 | 0.571 | 0.547 |  |  |  |  |  | 0.537 | 0.572 | 0.565 | 0.52 | 0.262
16 | SK-MES-1 | 0.991 | 1.1 | 1.09 | 0.98 | 0.687 | 0.737 | 0.837 | 0.677 | 0.298 | 0.252 |  |  |  |  |  | 0.375 | 0.351 | 0.35 | 0.124 | 0.125
17 | SK-LU-1 | 1.18 | 1.17 | 0.834 | 0.496 | 0.419 | 0.195 | 0.205 | 0.173 | 0.173 | 0.11 |  |  |  |  |  | 0.17 | 0.202 | 0.214 | 0.0951 | 0.118
18 | NCI-H2228 | 0.536 | 1.03 | 1.12 | 0.445 | 0.448 | 0.164 | 0.109 | 0.138 | 0.113 | 0.186 |  |  |  |  |  | 0.475 | 0.464 | 0.328 | 0.0587 | 0.0925
19 | IA-LM | 0.457 | 0.505 | 0.5 | 0.465 | 0.0667 |  |  |  |  |  |  |  |  |  |  |  |  |  |  | 
20 | HCC-366 | 0.597 | 0.675 | 0.64 | 0.454 | 0.427 |  |  |  |  |  | 0.289 | 0.218 | 0.184 | 0.227 | 0.243 | 0.664 | 0.474 | 0.726 | 0.481 | 0.0296
21 | HCC-78 | 0.448 | 0.52 |  | 0.283 | 0.304 |  |  |  |  |  | 0.745 | 0.669 | 0.694 | 0.633 | 0.596 | 0.354 | 0.385 | 0.291 | 0.422 | 0.274
22 | EBC-1 | 0.771 | 0.879 | 0.922 | 0.87 | 0.65 |  |  |  |  |  |  |  |  |  |  |  |  |  |  | 
23 | NCI-H1648 |  |  |  |  |  |  |  |  |  |  | 0.701 | 0.754 | 1 | 0.77 | 0.886 |  |  |  |  | 
24 | NCI-H1299 | 0.975 | 0.837 | 0.925 | 0.948 | 0.72 |  |  |  |  |  |  |  |  |  |  |  |  |  |  | 
